Measurements taken from PubChem BioAssay AID2060499 (Molecular Pharmacology Branch, DTP, NCI, 2025).

Tested on: 777334-354-R2-J4-PDC tumor spheroids with HUVEC/MSC, viability
Assay: Anticancer human tumor 777334-354-R2-J4-PDC patient-derived pancreatic adenocarcinoma cell line growth inhibition [GQUAD]
Conditions: for IC50: curve of first compound; for viability, T/C: stronger effect = lower value; active = viability on the fitted dose curve at most 10% of control; inactive = the rest
Outline: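 Viability of tumor cells grown as complex spheroids with endothelial and stromal cells, exposed to drug combinations. Top concentration at or near clinical Cmax (else 10 microM), diluted in half-log increments.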
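Note: spheroids exposed to compounds for 7 days before readout.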

COc1ncnc(C2CC2)c1-c1ncc2cnn(Cc3ccc(-c4nc(C(F)(F)F)cn4C(C)C)cc3)c2n1 + Cc1cnc(CNC(=O)c2c(=O)c3ccc(N4CCCN(C)CC4)nc3n3c2sc2ccccc23)cn1
inactive: viability, T/C (second compound 0.0316 µM, first compound 0.0316 µM) 106% | viability, T/C (second compound 0.0316 µM, first compound 0.1 µM) 94.8% | viability, T/C (second compound 0.0316 µM, first compound 0.316 µM) 101% | viability, T/C (second compound 0.0316 µM, first compound 1 µM) 92.5% | viability, T/C (second compound 0.0316 µM, first compound 3.16 µM) 106% | viability, T/C (second compound 0.0316 µM, first compound 10 µM) 95% | viability, T/C (second compound 0.1 µM, first compound 0.0316 µM) 91.5% | viability, T/C (second compound 0.1 µM, first compound 0.1 µM) 83.8% | viability, T/C (second compound 0.1 µM, first compound 0.316 µM) 97.6% | viability, T/C (second compound 0.1 µM, first compound 1 µM) 80.8% | viability, T/C (second compound 0.1 µM, first compound 3.16 µM) 92.4% | viability, T/C (second compound 0.1 µM, first compound 10 µM) 90.3% | viability, T/C (second compound 0.316 µM, first compound 0.0316 µM) 82.8% | viability, T/C (second compound 0.316 µM, first compound 0.1 µM) 81% | viability, T/C (second compound 0.316 µM, first compound 0.316 µM) 72% | viability, T/C (second compound 0.316 µM, first compound 1 µM) 85.8% | viability, T/C (second compound 0.316 µM, first compound 3.16 µM) 87.8% | viability, T/C (second compound 0.316 µM, first compound 10 µM) 86.5% | viability, T/C (second compound 1 µM, first compound 0.0316 µM) 65.3% | viability, T/C (second compound 1 µM, first compound 0.1 µM) 75.7% | viability, T/C (second compound 1 µM, first compound 0.316 µM) 67.4% | viability, T/C (second compound 1 µM, first compound 1 µM) 76.3% | viability, T/C (second compound 1 µM, first compound 3.16 µM) 77.4% | viability, T/C (second compound 1 µM, first compound 10 µM) 82.1% | viability, T/C (second compound 3.16 µM, first compound 0.0316 µM) 64.3% | viability, T/C (second compound 3.16 µM, first compound 0.1 µM) 73.5% | viability, T/C (second compound 3.16 µM, first compound 0.316 µM) 55% | viability, T/C (second compound 3.16 µM, first compound 1 µM) 65.7% | viability, T/C (second compound 3.16 µM, first compound 3.16 µM) 80.8% | viability, T/C (second compound 3.16 µM, first compound 10 µM) 70.3% | viability, T/C (second compound 10 µM, first compound 0.0316 µM) 55.5% | viability, T/C (second compound 10 µM, first compound 0.1 µM) 63.6% | viability, T/C (second compound 10 µM, first compound 0.316 µM) 57.9% | viability, T/C (second compound 10 µM, first compound 1 µM) 59.2% | viability, T/C (second compound 10 µM, first compound 3.16 µM) 58.2% | viability, T/C (second compound 10 µM, first compound 10 µM) 56.7%
> 10 µM: IC50 (second compound 0.0316 µM) | IC50 (second compound 0.1 µM) | IC50 (second compound 0.316 µM) | IC50 (second compound 1 µM) | IC50 (second compound 3.16 µM) | IC50 (second compound 10 µM)
